Experimental data: US12414915B2, “Liquid naloxone spray” (HIKMA PHARMACEUTICALS USA INC., priority 2023, dated 2025)
Read-outs that look alike come from different tables or passages of the source.

Test: Phase I five-way crossover: intranasal and sublingual naloxone spray 8 mg and 16 mg versus 0.4 mg intramuscular, plasma concentrations
Assay type: in vivo, human subjects
Conditions: for concentration at 0.03 h / concentration at 0.07 h / concentration at 0.1 h / concentration at 0.13 h / concentration at 0.17 h / concentration at 0.5 h / concentration at 1 h / concentration at […] / Cmax / AUC: human, plasma; for concentration at 0.03 h / concentration at 0.07 h / concentration at 0.1 h / concentration at 0.13 h / concentration at 0.17 h / concentration at 0.5 h / concentration at 1 h / concentration at […]: mean ± SD; for concentration at […]: read-out: Conc. @ 0.25 h; for AUC: time-zero to 1 hour post dose
Protocol: 145 subjects were randomly assigned to one of five groups including 8 milligrams sublingual dose, 16 milligrams sublingual dose, 8 milligrams intranasal dose, 16 milligrams intranasal dose and 0.4 milligram naloxone dose. Plasma concentrations were taken at pre-dose, 0.03, 0.07, 0.1, 0.13, 0.17, 0.25, 0.5, 1, 2 4, 8 and 12 hours' post-dose.

Compound: C=CCN1CC[C@]23c4c5ccc(O)c4O[C@H]2C(=O)CC[C@@]3(O)[C@H]1C5 [naloxone, Naloxone]
- mean plasma concentration, 16 mg intranasal compared with 16 mg sublingual (2 and 4 hours post-dose): significantly lower
- plasma concentration, intranasal compared with sublingual administration (all time points up to 1 hour after administration): significantly greater plasma concentration
- concentration at 0.03 h (intramuscular, 0.4 mg IM): 0.15 ± 0.29 ng/mL
- concentration at 0.07 h (intramuscular, 0.4 mg IM): 0.36 ± 0.38 ng/mL
- concentration at 0.1 h (intramuscular, 0.4 mg IM): 0.51 ± 0.41 ng/mL
- concentration at 0.13 h (intramuscular, 0.4 mg IM): 0.58 ± 0.39 ng/mL
- concentration at 0.17 h (intramuscular, 0.4 mg IM): 0.63 ± 0.36 ng/mL
- concentration at 0.5 h (intramuscular, 0.4 mg IM): 0.62 ± 0.22 ng/mL
- concentration at 1 h (intramuscular, 0.4 mg IM): 0.51 ± 0.16 ng/mL
- concentration at […] (intramuscular, 0.4 mg IM): 0.69 ± 0.4 ng/mL
- concentration at 0.03 h (other: intranasal, 8 mg IN): 6.19 ± 14.5 ng/mL
- concentration at 0.07 h (other: intranasal, 8 mg IN): 13.9 ± 19.1 ng/mL
- concentration at 0.1 h (other: intranasal, 8 mg IN): 18.8 ± 15.6 ng/mL
- concentration at 0.13 h (other: intranasal, 8 mg IN): 20.5 ± 13.1 ng/mL
- concentration at 0.17 h (other: intranasal, 8 mg IN): 20 ± 10.7 ng/mL
- concentration at 0.5 h (other: intranasal, 8 mg IN): 9.88 ± 4.42 ng/mL
- concentration at 1 h (other: intranasal, 8 mg IN): 6.29 ± 2.7 ng/mL
- concentration at […] (other: intranasal, 8 mg IN): 16.5 ± 6.71 ng/mL
- concentration at 0.03 h (other: intranasal, 16 mg IN): 9.29 ± 14.3 ng/mL
- concentration at 0.07 h (other: intranasal, 16 mg IN): 29.7 ± 28 ng/mL
- concentration at 0.1 h (other: intranasal, 16 mg IN): 46.3 ± 36.6 ng/mL
- concentration at 0.13 h (other: intranasal, 16 mg IN): 49.3 ± 34 ng/mL
- concentration at 0.17 h (other: intranasal, 16 mg IN): 45.8 ± 24.6 ng/mL
- concentration at 0.5 h (other: intranasal, 16 mg IN): 22.4 ± 8.19 ng/mL
- concentration at 1 h (other: intranasal, 16 mg IN): 14.1 ± 5.61 ng/mL
- concentration at […] (other: intranasal, 16 mg IN): 35 ± 13.2 ng/mL
- concentration at 0.03 h (other: sublingual, 8 mg SL): 0.18 ± 0.29 ng/mL
- concentration at 0.07 h (other: sublingual, 8 mg SL): 0.62 ± 0.96 ng/mL
- concentration at 0.1 h (other: sublingual, 8 mg SL): 0.88 ± 0.94 ng/mL
- concentration at 0.13 h (other: sublingual, 8 mg SL): 1.17 ± 1.13 ng/mL
- concentration at 0.17 h (other: sublingual, 8 mg SL): 1.54 ± 1.1 ng/mL
- concentration at 0.5 h (other: sublingual, 8 mg SL): 2.03 ± 1.28 ng/mL
- concentration at 1 h (other: sublingual, 8 mg SL): 1.61 ± 0.85 ng/mL
- concentration at […] (other: sublingual, 8 mg SL): 1.98 ± 1.29 ng/mL
- concentration at 0.03 h (other: sublingual, 16 mg SL): 0.52 ± 0.8 ng/mL
- concentration at 0.07 h (other: sublingual, 16 mg SL): 1.69 ± 1.85 ng/mL
- concentration at 0.1 h (other: sublingual, 16 mg SL): 2.31 ± 2.08 ng/mL
- concentration at 0.13 h (other: sublingual, 16 mg SL): 3.16 ± 3.39 ng/mL
- concentration at 0.17 h (other: sublingual, 16 mg SL): 3.63 ± 3.83 ng/mL
- concentration at 0.5 h (other: sublingual, 16 mg SL): 3.94 ± 2.96 ng/mL
- concentration at 1 h (other: sublingual, 16 mg SL): 2.96 ± 1.66 ng/mL
- concentration at […] (other: sublingual, 16 mg SL): 4.39 ± 4.24 ng/mL
- Cmax (other: intranasal, 8 mg IN): 20.5 ng/mL
- AUC (other: intranasal, 8 mg IN): 11.2 ng·h/mL
- Cmax (other: intranasal, 16 mg IN): 49.3 ng/mL
- AUC (other: intranasal, 16 mg IN): 24.9 ng·h/mL
- Cmax (other: sublingual, 8 mg SL): 2.03 ng/mL
- AUC (other: sublingual, 8 mg SL): 1.68 ng·h/mL
- Cmax (other: sublingual, 16 mg SL): 4.39 ng/mL
- AUC (other: sublingual, 16 mg SL): 3.42 ng·h/mL
- Cmax (0.4 mg IM): 0.69 ng/mL
- AUC (0.4 mg IM): 0.57 ng·h/mL
- plasma concentration compared with 0.4 mg intramuscular administration (intranasal or sublingual, 8 mg or 16 mg, all time points up to 1 hour, fasted): significantly greater plasma concentrations
